Measurements from article PMC3105312 (Nature Communications, 2011).

Molecular target: PspF1-275 (Escherichia coli, UniProt P37344)
Conditions: 10 μM protein, pH 8.0, on ice; labelled compound; comparative control

Chain of PspF1-275 (P37344 1-275): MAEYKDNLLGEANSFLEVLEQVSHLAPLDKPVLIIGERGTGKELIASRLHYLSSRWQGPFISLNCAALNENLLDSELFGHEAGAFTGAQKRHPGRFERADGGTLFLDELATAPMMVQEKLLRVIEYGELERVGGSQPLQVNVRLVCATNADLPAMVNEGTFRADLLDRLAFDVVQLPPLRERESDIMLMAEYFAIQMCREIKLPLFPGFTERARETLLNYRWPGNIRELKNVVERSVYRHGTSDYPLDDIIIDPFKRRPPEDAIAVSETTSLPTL

Nc1ncnc2c1ncn2[C@@H]1O[C@H](COP(=O)(O)OP(=O)(O)OP(=O)(O)O)[C@@H](O)[C@H]1O [ATP]
ultraviolet crosslinking of [α-32P]ATP, SDS-PAGE, phosphorimaging: at a level comparable to that of the structurally and functionally characterized EBP PspF
